The text below walks through data of publication PMC5309245, “Discovery and Characterization of Diazenylaryl Sulfonic Acids as Inhibitors of Viral and Bacterial Neuraminidases” (Frontiers in Microbiology, 2017).

In general, Ki refers to a dissociation constant, usually derived from enzyme kinetics or from competition with a known ligand. A word on the Km: it is the concentration of substrate that gives half-maximal velocity.

One data set deals with influenza A virus HK/68. Description: microbe, parasite or virus in culture. Type of data set: cell-based, influenza A virus A/Hong Kong/68 (H3N2). To be noted: Influenza A virus, MDCK, 48 h, read-out: 50% inhibitory concentration, influenza A virus HK/68.
Data set [1] concerns 8178/09-, WSN/33-, or HK/68-induced cytopathic effect. In words: CPE inhibition assay (viruses not separated). The data set is classed as cell-based. The settings on record: Influenza A virus, MDCK, read-out: IC50 of inhibition of the 8178/09-, WSN/33-, or HK/68-induced cytopathic effect. (In general: Protection from cytopathic effect is a common read-out in antiviral testing.)

A short description of another data set: in vitro. To be noted: dog.
Data set [2] has as its system S. pneumoniae DSM20566. In words: Microtiter broth microdilution assay, planktonic growth. Type of data set: cell-based, Streptococcus pneumoniae DSM20566. To be noted: Streptococcus pneumoniae, DSM20566; 18 h, maximum 50 μM; read-out: 50% inhibitory concentration, S. pneumoniae DSM20566 planktonic growth. (In general: Dilution methods test growth across graded concentrations, often in twofold steps.)

The target of data set [3] is T1, S. pneumoniae DSM20566 NA (NanA) (Streptococcus pneumoniae, UniProt P62575).
T1 construct: host or cells: either rNanA from E. coli BL21(DE3) or total precipitated protein of S. pneumoniae DSM20566
Description: FL NA inhibition assay, S. pneumoniae DSM20566. Type of data set: biochemical. To be noted: MUNANA substrate; read-out: NA inhibition using FL assay IC50, S. p. DSM20566.

For data set [4], the target named is Influenza virus A/WSN/33 NA-wt (whole virus) (Influenza A virus, UniProt P03470). Type of data set: biochemical, influenza A virus A/WSN/1933 (H1N1). To be noted: for Km: Km for MUNANA, kinetics with 1.
In another data set the test system is influenza A virus WSN/33. In words: microbe, parasite or virus in culture. The data set is classed as cell-based, influenza A virus A/WSN/1933 (H1N1). The settings on record: Influenza A virus, WSN, MDCK, 48 h, read-out: 50% inhibitory concentration, influenza A virus WSN/33.
In data set [5] the test system is S. pneumoniae DSM20566 biofilm. In words: Biofilm inhibition assay. Type of data set: cell-based, Streptococcus pneumoniae DSM20566. To be noted: Streptococcus pneumoniae, DSM20566; 50 μM; read-out: Inhibition of biofilm formation at the maximum tested concentration.
The target of data set [6] is IAV HK/68 NA (whole virus) (Influenza A virus, UniProt Q91MA2). In words: biochemical. The arrangement: species or system influenza A virus A/Hong Kong/68 (H3N2). The settings on record: NA inhibition using FL assay IC50, IAV HK/68.
Data set [7] has as its target S. pneumoniae recombinant NanA 9400_LC (Streptococcus pneumoniae, UniProt P62575). Description: biochemical. The arrangement: species or system Streptococcus pneumoniae CJ9400.
The next data set relates to IAV 5258/09 NA. Description: Hemagglutination (HA)-based NA inhibition assay, IAV 5258/09. The data set is classed as cell-based, influenza A virus A/Jena/5258/2009 (H1N1). To be noted: human erythrocytes.
The subject of data set [8] is human erythrocytes. The data set is classed as cell-based. The settings on record: human erythrocytes, 4 h at 37°C and 12 h at 4°C. On the procedure:
(§1) Viral (whole virus) and bacterial NA activity as well as their inhibition were measured by using a fluorescence (FL) assay with the substrate 2′-(4-methylumbelliferyl)-α-D-N-acetylneuraminic acid sodium salt hydrate (MUNANA, 100 μM; Sigma-Aldrich GmbH, Taufkirchen, Germany), and/or a hemagglutination (HA)-based NA inhibition assay (HA assay) with human erythrocytes (Institute of Transfusion Medicine, University Hospital Jena, Jena, Germany), both assays as published recently (Richter et al., [2015]). Recombinant NanA (rNanA) and total precipitated bacterial protein of S. pneumoniae DSM20566 were used in FL and HA assays. Interference of the compounds with the FL signal (self-fluorescence and quenching) was excluded as described previously (Richter et al., [2015]). […] Each compound was tested at least three times in both NA inhibition assays.
Supplementary Table 1. […]
eTest compounds lysed the human erythrocytes (4 h at 37°C and 12 h at 4°C).

Data set [9] concerns Influenza virus A/Jena/8178/09. Type of data set: cell-based, influenza A virus A/Jena/8178/2009 (H1N1).
The target of data set [10] is T2, S. pneumoniae DSM20566 NA (Streptococcus pneumoniae, UniProt P62575).
T2 construct: host or cells: either rNanA from E. coli BL21(DE3) or total precipitated protein of S. pneumoniae DSM20566
Description: HA-based NA inhibition assay, S. pneumoniae DSM20566. The data set is classed as cell-based. The settings on record: human erythrocytes.

The subject of data set [11] is S. pneumoniae DSM20566. Description: Bactericidal or bacteriostatic activity (subculture on blood agar). The data set is classed as cell-based, Streptococcus pneumoniae DSM20566. To be noted: 50 µM.
The target in data set [12] is S. pneumoniae recombinant NanA 9400_CC (Streptococcus pneumoniae, UniProt P62575). Description: biochemical. Type of data set: biochemical, Streptococcus pneumoniae CJ9400.
For data set [13], the target named is S. pneumoniae recombinant NanA 20566_LC (Streptococcus pneumoniae, UniProt P62575). Description: biochemical. The arrangement: species or system Streptococcus pneumoniae DSM20566.
For data set [14], the target named is S. pneumoniae recombinant NanA 20566_CC (Streptococcus pneumoniae, UniProt P62575). In words: biochemical. Also noted: species or system Streptococcus pneumoniae DSM20566.
The test system of data set [15] is human erythrocytes. The data set is classed as cell-based. To be noted: human erythrocytes, 2 h at 4°C. On the procedure:
as §1
Supplementary Table 1. Assay interference phenomena of test compounds in the HA-based […]
sample concentrations [µM] in viral HA-assay bacterial HA-assay […]
hem- prevention of erythrocyte hem- erythrocyte agglutinationa virus-induced lysisc agglutinationd lysise […]
cTest compounds lysed the human erythrocytes (2 h at 4°C). […]

Data set [16] deals with influenza A virus 8178/09. In words: microbe, parasite or virus in culture. The data set is classed as cell-based, influenza A virus A/Jena/8178/2009 (H1N1). To be noted: Influenza A virus, MDCK, 48 h, read-out: 50% inhibitory concentration, influenza A virus 8178/09.
A further data set deals with WSN/33. The data set is classed as cell-based, influenza A virus A/WSN/1933 (H1N1).
Data set [17] addresses S. pneumoniae recombinant NanA 8919_LC (Streptococcus pneumoniae, UniProt P62575). In words: biochemical. Type of data set: biochemical, Streptococcus pneumoniae CF8919.

Several values for one entry are separate records, joined by “and”; a condition that tells them apart may be missing. Equal values may be shown once. Where a name gives a salt, the structure may show the parent alone. Read-outs that look alike come from different tables or passages of the source.

S. pneumoniae recombinant NanA 20566_CC, sequence (P62575 311-833): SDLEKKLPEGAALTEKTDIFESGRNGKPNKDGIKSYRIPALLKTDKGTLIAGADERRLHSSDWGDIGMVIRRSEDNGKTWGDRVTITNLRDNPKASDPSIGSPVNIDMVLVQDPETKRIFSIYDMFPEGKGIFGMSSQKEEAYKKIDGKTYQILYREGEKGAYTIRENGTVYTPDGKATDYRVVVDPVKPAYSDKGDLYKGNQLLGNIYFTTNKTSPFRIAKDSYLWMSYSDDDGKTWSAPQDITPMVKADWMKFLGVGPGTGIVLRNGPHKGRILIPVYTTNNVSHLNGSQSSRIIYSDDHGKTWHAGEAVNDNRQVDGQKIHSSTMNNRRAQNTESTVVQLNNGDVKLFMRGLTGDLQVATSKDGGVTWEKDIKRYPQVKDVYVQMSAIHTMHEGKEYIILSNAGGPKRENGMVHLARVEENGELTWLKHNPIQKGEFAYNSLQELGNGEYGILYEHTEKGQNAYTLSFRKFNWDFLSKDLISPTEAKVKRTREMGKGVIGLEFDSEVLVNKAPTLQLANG
S. pneumoniae recombinant NanA 9400_CC, sequence (P62575 311-833): as above
Influenza virus A/WSN/33 NA-wt (whole virus), sequence (P03470 whole entry, looked up): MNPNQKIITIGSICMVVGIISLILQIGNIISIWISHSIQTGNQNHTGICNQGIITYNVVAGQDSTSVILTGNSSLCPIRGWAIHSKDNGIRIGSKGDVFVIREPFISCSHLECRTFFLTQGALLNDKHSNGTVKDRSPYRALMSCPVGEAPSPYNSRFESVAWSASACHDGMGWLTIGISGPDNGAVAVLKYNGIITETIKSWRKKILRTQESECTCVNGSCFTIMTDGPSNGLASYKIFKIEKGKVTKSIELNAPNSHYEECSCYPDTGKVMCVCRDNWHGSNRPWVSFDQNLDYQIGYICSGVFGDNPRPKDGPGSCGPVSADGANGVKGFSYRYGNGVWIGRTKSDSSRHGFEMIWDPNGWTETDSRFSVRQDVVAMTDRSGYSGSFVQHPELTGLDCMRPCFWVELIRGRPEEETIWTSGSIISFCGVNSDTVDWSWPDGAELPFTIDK
S. pneumoniae recombinant NanA 8919_LC, sequence (P62575 116-833): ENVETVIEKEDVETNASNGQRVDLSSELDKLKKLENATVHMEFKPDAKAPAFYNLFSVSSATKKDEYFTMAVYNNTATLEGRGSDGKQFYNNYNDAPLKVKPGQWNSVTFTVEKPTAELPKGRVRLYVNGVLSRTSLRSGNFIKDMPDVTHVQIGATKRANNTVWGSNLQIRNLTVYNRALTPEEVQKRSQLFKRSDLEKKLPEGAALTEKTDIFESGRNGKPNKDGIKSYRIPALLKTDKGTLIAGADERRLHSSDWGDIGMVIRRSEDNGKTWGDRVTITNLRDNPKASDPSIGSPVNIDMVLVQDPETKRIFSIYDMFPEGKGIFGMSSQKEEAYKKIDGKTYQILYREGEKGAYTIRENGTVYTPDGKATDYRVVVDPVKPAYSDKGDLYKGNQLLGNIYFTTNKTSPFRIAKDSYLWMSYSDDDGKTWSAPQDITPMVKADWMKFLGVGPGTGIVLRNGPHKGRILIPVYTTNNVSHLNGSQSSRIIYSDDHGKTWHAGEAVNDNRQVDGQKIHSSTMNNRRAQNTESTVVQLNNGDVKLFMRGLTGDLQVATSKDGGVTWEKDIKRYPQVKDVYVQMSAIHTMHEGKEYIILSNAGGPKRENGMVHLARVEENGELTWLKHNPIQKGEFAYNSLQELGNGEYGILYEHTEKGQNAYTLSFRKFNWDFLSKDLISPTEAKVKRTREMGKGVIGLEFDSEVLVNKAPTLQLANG
S. pneumoniae recombinant NanA 9400_LC, sequence (P62575 116-833): as above
S. pneumoniae recombinant NanA 20566_LC, sequence (P62575 116-833): as above
T1 sequence (P62575 54-1035): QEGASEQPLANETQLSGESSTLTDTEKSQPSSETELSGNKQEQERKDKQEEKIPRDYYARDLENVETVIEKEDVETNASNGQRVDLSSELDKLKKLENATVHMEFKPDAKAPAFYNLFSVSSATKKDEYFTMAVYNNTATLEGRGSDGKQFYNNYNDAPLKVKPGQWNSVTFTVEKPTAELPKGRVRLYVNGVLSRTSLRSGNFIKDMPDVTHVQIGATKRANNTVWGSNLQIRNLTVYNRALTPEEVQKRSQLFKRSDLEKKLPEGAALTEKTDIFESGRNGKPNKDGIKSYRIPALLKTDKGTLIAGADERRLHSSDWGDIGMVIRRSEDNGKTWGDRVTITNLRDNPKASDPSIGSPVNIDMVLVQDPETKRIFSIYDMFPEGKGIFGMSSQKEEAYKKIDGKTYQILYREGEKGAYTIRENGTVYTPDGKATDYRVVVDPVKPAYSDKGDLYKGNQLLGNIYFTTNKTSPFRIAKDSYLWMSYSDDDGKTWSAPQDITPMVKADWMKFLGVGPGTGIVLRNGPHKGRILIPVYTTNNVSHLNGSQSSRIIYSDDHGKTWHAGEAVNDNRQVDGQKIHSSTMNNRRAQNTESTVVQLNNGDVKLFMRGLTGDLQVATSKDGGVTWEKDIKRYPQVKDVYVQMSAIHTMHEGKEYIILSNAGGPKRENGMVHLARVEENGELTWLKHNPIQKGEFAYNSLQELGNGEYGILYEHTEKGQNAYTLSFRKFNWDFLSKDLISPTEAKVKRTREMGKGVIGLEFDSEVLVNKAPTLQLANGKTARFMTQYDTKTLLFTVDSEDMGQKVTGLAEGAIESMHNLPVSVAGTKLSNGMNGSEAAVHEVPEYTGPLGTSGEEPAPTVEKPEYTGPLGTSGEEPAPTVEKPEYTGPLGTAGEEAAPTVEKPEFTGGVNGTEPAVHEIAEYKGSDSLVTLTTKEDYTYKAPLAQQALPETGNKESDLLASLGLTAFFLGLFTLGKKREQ

`Cc1cc(N=Nc2ccc(N=Nc3c(O)c(S(=O)(=O)O)cc4cc(S(=O)(=O)O)ccc34)cc2C)ccc1N=Nc1ccc2cc(S(=O)(=O)O)cc(S(=O)(=O)O)c2c1` [Compound 1, 7-[2-[4-[2-[4-[2-(2-hydroxy-3,6-disulfo-1-naphthalenyl)diazenyl]-2-methylphenyl]diazenyl]-2-methylphenyl]diazenyl]-1,3-naphthalenedisulfonic acid]: the IC50 is 18500 ± 9590 nM in the data set with influenza A virus HK/68; less than 15000 nM in data set [1]; 28800 ± 13100 nM in the data set with S. pneumoniae DSM20566 [2]; 320 ± 50 nM in data set [3]; 7170 ± 960 nM in the data set with influenza A virus WSN/33; 1420 ± 440 nM in [6]. Further, in [16], the IC50 amounted to 20400 ± 2510 nM. The compound further showed a CC50 in “in vitro” greater than 100000 nM. The Binding mechanism entry in data set [4], in [7], in data set [12], in data set [13], in [14] and in data set [17] was “Mixed” in each case. For the same compound, the “binding kinetics (effect of pre-incubation on Ki)” value in data set [4] is “fast-binding inhibitor”. For the same compound, the inhibition at 50 µM in [5] came out at 49%. Further, the Ki in data set [7] (Ki) turned out to be 190 ± 20 nM; in data set [7] (Ki (fit printed in Lineweaver-Burk plot, Supplementary Figure 2D)), 172 nM; in [12], 160 ± 10 nM; in data set [13] (Ki) it was 120 ± 10 nM; in [13] (Ki (fit in Lineweaver-Burk plot, Supplementary Figure 2B)), 103 nM; in [14] (Ki), 160 ± 30 nM. The Ki came to 143 nM in data set [14] (Ki (fit in Lineweaver-Burk plot, Supplementary Figure 2C)) and 110 ± 20 nM in data set [17]. Besides, in the data set with IAV 5258/09 NA, the “NA inhibition using HA assay MIC, IAV 5258/09” value stood at 10.00 ± 0.00 µM. In the data set on human erythrocytes [8], the “sample concentrations provoking erythrocyte lysis, bacterial HA-assay” value is listed as “no”. The “Mean reduction in plaque numbers ± SD” value in [9] was 96.10 ± 3.45% and 96.46 ± 1.08% and 97.76 ± 0.65% and 94.12 ± 3.06%. The “Mean ± SD of both experiments, reduction in plaque numbers” value in data set [9] was 95.29 ± 1.65% and 96.93 ± 1.17%. Also, the “NA inhibition using HA assay MIC, S. p. DSM20566” value in data set [10] came to 7.26 ± 3.75 µM. For the same compound, the “Activity (bactericidal or bacteriostatic)” value with S. pneumoniae DSM20566 [11] is recorded as “bacteriostatic”. Also, in the data set on S. pneumoniae DSM20566 [11] (18 h, then subculture), the “cfu per agar plate” value is greater than 150. Besides, the “alpha (fit printed in Lineweaver-Burk plot, Supplementary Figure 2E)” value in data set [12] was 3,7. The “alpha (fit in Lineweaver-Burk plot, Supplementary Figure 2B)” value in [13] is reported as 12,9. The “alpha (fit in Lineweaver-Burk plot, Supplementary Figure 2C)” value in [14] is 5,5. Moreover, the “sample concentrations provoking erythrocyte lysis, viral HA-assay” value with human erythrocytes [15] was “no”. Besides, the “Decrease of plaque formation, compound during the whole replication cycle” value with WSN/33 is listed as “up to 100%”. In addition, the “Plaque numbers after pretreatment of MDCK cells” value with WSN/33 is given as “not affected”. For the same compound, the “Reduction of plaque number after pretreatment of the cell-free virus” value in the data set with WSN/33 is ~ 95%. In addition, the “Reduction of plaque number, compound added during virus adsorption” value in the data set on WSN/33 was 50%. Moreover, in data set [17], the “alpha (fit printed in Lineweaver-Burk plot, Supplementary Figure 2A)” value is reported as 7,8.
For the compound `CC(=O)N[C@H]1[C@H]([C@H](O)[C@H](O)CO)O[C@@](Oc2ccc3c(C)cc(=O)oc3c2)(C(=O)O)C[C@@H]1O` [MUNANA, 2′-(4-methylumbelliferyl)-α-D-N-acetylneuraminic acid sodium salt hydrate, reference compound], the Michaelis-Menten constant (Km) in [4] (20 min preincubation) was 44.2 ± 4.63 µM; in data set [4] (without preincubation (n = 2)), 40 ± 3.86 µM; in data set [7] (Km for MUNANA, kinetics with 1) it was 46.2 ± 1.71 µM; in [12] (Km for MUNANA, kinetics with 1), 46.4 ± 3.93 µM; in [13] (Km for MUNANA, kinetics with 1), 17.9 ± 2.12 µM; in data set [14] (Km for MUNANA, kinetics with 1), 20.2 ± 4.74 µM. In addition, the Km in data set [17] (Km for MUNANA, kinetics with 1) came to 18 ± 2.39 µM.
